Measurements: patent US20110159111A1, “PHARMACEUTICAL COMBINATIONS” (priority 2006, published 2011)
Read-outs that look alike come from different tables or passages of the source.

Assays:
[1] = Thermogravimetric analysis (TGA); format: physicochemical; settings: heated at 10° C./min
Method: Approximately 5 mg of sample (accurately weighed) was placed into a platinum TGA pan and loaded into a TGA 7 gravimetric analyser. The sample under study was then heated at a rate of 10° C./min (from ambient to 300° C.) and the resulting change in weight monitored. A dry nitrogen purge gas at a flow rate of 20 ml/min was used to produce an inert atmosphere and prevent oxidation of the sample during heating. Prior to analysis the instrument was weight calibrated using a 100 mg reference standard and temperature calibrated using an Alumel reference standard (using the Curie point transition temperature).

[2] = Vapour sorption/desorption analysis (IgaSorp balance); format: physicochemical
Method: Approximately 20 mg of sample was placed into a wire-mesh vapour sorption balance pan and loaded into an ‘IgaSorp’ vapour sorption balance (Hiden Analytical Instruments) held at 25+/−0.1° C. The sample was then dried by maintaining a 0% humidity environment (using mass flow control apparatus) until no further weight change was recorded. Subsequently, the sample was then subjected to a ramping profile from 0-90% relative humidity (% RH) at 10% RH increments, maintaining the sample at each step until equilibration had been attained (99.5% step completion).
Upon reaching equilibration, the % RH within the apparatus was ramped to the next step and the equilibration procedure repeated. After completion of the sorption cycle, the sample was then dried using the same procedure. The weight change during the sorption/desorption cycles was then monitored, allowing for the hygroscopic nature of the sample to be determined.

[3] = Solubilities of acid addition salts of 1-(2,6-difluorophenyl)-N-[3-(5-morpholin-4-ylmethyl-1H-benzimidazol-2-yl)-1H-pyrazol-4-yl]-urea; format: physicochemical
Method: This was carried out as described in Example 61 of WO 2006/070195 at pages 173 to 175 (the content of which is incorporated herein by reference).

[4] = antitumour agent; cited from earlier work
[5] = system: human colon carcinoma cell line HCT 116; experiment: Anti-proliferative activity, HCT-116 cell line (Set B); format: cell-based; settings: HCT 116 (ECACC No. 91091005), Set B Example 1
From the text: Anti-proliferative Activity
See Example 15 of WO 2006/077426 at pages 100-101 (which is incorporated herein by reference).

[6] = clinical studies; cited from earlier work
[7] = Gravimetric vapour sorption (GVS); format: physicochemical; settings: forms of 1-cyclopropyl-3-[3-(5-morpholin-4-ylmethyl-1H-benzoimidazol-2-yl)-1H-pyrazol-4-yl]-urea; 25° C., 0-95% RH
Method: E. Gravimetric Vapour Sorption (GVS):
The sample size was ca. 10-25 mg. […] The sample was loaded and unloaded at room humidity and temperature (ca. 40% RH, 25° C.) and analysed afterwards by XRPD (using a Bruker AXS C2 GADDS system).

PKG = target: T1, PKG (Homo sapiens, UniProt Q13976); settings: cited from earlier work
T1 sequence (Q13976 1-671): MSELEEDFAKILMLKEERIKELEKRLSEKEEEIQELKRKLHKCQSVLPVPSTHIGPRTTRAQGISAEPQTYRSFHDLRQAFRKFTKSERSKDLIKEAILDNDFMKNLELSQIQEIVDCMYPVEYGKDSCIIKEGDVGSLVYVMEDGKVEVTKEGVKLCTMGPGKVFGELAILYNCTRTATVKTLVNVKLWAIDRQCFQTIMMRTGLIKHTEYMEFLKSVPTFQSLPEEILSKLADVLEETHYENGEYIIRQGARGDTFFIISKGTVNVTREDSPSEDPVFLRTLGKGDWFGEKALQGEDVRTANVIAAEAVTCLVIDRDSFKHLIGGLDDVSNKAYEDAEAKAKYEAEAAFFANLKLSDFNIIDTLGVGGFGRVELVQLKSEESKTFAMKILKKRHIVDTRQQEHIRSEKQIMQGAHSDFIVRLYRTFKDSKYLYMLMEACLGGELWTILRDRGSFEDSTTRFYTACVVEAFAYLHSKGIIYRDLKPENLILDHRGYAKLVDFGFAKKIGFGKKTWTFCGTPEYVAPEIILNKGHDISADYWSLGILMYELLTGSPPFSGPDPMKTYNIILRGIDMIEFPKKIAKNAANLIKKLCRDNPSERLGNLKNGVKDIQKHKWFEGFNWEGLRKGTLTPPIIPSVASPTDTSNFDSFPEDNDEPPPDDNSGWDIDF

PKC = settings: cited from earlier work
OVCAR-3 tumour cells = settings: concentrations of 50 and 100 microM; cited from earlier work
[8] = system: Acute Promyelocytic Leukemia; settings: APL patients; cited from earlier work
[9] = system: P-glycoprotein-overexpressing subline of CCRF-CEM; settings: cited from earlier work
[10] = system: chronic lymphocytic leukaemia; settings: initial therapy, symptomatic CLL patients; cited from earlier work
[11] = system: Chronic Myeloid Leukaemia; settings: CML patients in blast phase; cited from earlier work

CS(=O)(=O)N1CCC(NC(=O)c2n[nH]cc2NC(=O)c2c(Cl)cccc2Cl)CC1
TGA significant event (thermally induced partial degradation prior to melt) ([1]; ambient to 300° C.): about 288 °C | TGA mass loss ([1]; up to 150° C., crystals from Example 5 Step 8): approximately 0.2% | weight loss during initial drying ([2]; 0% RH, 25° C.): approximately 0.01% | total weight increase upon equilibration ([2]; stepwise 0-90% RH, equilibration at 90% RH, 25° C.): 0.24% | hygroscopicity / hydrate formation ([2]; storage in elevated humidity conditions): physically stable with regard to hygroscopicity

1-(2,6-difluorophenyl)-N-[3-(5-morpholin-4-ylmethyl-1H-benzimidazol-2-yl)-1H-pyrazol-4-yl]-urea [D-glucuronate]
solubility ([3]; acid addition salts of 1-(2,6-difluorophenyl)-N-[3-(5-morpholin-4-ylmethyl-1H-benzimidazol-2-yl)-1H-pyrazol-4-yl]-urea, liquid carrier (e.g. water)): greater than 25 mg/ml

CCN[C@H]1CO[C@@H](O[C@H]2[C@H](O[C@H]3C#C/C=C\C#C[C@]4(O)CC(=O)C(NC(=O)OC)=C3/C4=C\CSSSC)O[C@H](C)[C@@H](NO[C@H]3C[C@H](O)[C@H](SC(=O)c4c(C)c(I)c(O[C@@H]5O[C@@H](C)[C@H](O)[C@@H](OC)[C@H]5O)c(OC)c4OC)[C@@H](C)O3)[C@@H]2O)C[C@@H]1OC [Calicheamicin]
potency relative to adriamycin [4]: over 1,000 times

O=C(NC1CCNCC1)c1n[nH]cc1NC(=O)c1c(Cl)cccc1Cl [Example 1]
IC50 [5]: < 20 µM

CCCCCCCCCCCCCCCCCCOP(=O)([O-])OC1CC[N+](C)(C)CC1 [KRX-0401]
half-life [6]: ~100 h

C[C@H](O)C(=O)O.O=C(Nc1c[nH]nc1-c1nc2cc(CN3CCOCC3)ccc2[nH]1)NC1CC1 [L-lactate salt, 1-cyclopropyl-3-[3-(5-morpholin-4-ylmethyl-1H-benzoimidazol-2-yl)-1H-pyrazol-4-yl]-urea]
GVS isotherm behaviour [7]: does not display hygroscopic behaviour and does not form a hydrate

O=S(=O)(NCCNCC=C(c1ccccc1)c1ccccc1)c1cccc2cnccc12 [NL-71-101]
IC50 (PKG): 36 µM | IC50 (PKC): 104 µM | apoptosis (OVCAR-3 tumour cells): induced apoptosis

CC1=C(/C=C/C(C)=C/C=C/C(C)=C/C(=O)O)C(C)(C)CCC1 [Tretinoin, all-trans retinoic acid]
remissions induced [8]: 64-100%

C/C1=C/C[C@@H](/C(C)=C/c2csc(C)n2)OC(=O)C[C@H](O)C(C)(C)C(=O)[C@H](C)[C@@H](O)[C@@H](C)CCC1 [desoxyepothilone B]
IC50 [9]: 0.017 µM

O=C(Nc1c[nH]nc1-c1nc2cc(CN3CCOCC3)ccc2[nH]1)Nc1c(F)cccc1F [esylate, 1-(2,6-difluorophenyl)-N-[3-(5-morpholin-4-ylmethyl-1H-benzimidazol-2-yl)-1H-pyrazol-4-yl]-urea]
solubility [3]: > 100 mg/mL

Nc1nc(F)nc2c1ncn2[C@@H]1O[C@H](CO)[C@@H](O)[C@@H]1O [fludarabine]
duration of progression-free survival [10]: 33 months | rate of complete responses [10]: 27%

Cc1ccc(NC(=O)c2ccc(CN3CCN(C)CC3)cc2)cc1Nc1nccc(-c2cccnc2)n1 [imatinib, 4-[(4-methyl-1-piperazinyl)methyl]-N-[4-methyl-3-[[4-(3-pyridinyl)-2-ylpyridinyl]amino]-phenyl]benzamide methanesulfonate]
duration of remissions [11]: 2-6 months
